Non-standard residues stand in square brackets, D forms with d. Residues, ends and D or L forms follow the SMILES beside them.
Tested on: GnRH release
Assay: GnRH release in the stalk-median eminence, microdialysis
Format: in vivo, rhesus monkey
Conditions: pubertal female rhesus monkeys; 10 nM infused over 30 min through microdialysis probe
Description: Four female rhesus monkeys, born and raised in the Wisconsin National Primate Research Center, were used in this study. They were housed in pairs (cages 172×86×86 cm) in rooms with 12 h of light 12 h of darkness and controlled temperature (22° C.). The animals were fed a standard diet of Harlan 20% Protein Primate Diet twice each day, supplemented with fresh fruit several times per week. Water was available ad libitum. The protocol for this study was reviewed and approved by the Animal Care and Use Committee, University of Wisconsin, and all experiments were conducted under the guidelines established by the NIH and USDA.
The effects of peptide 234 on GnRH release were examined using the microdialysis method. This method allows collection of dialysate samples for GnRH measurement while peptide 234 was infused through the semi-permeable membrane, as described previously (25)′(24). Peptide 234 dissolved in CNS perfusion fluid was infused in the stalk median eminence region through the microdialysis probe for 30 min while dialysates were continuously collected. […]
On the day of experiment the monkey was placed in the stereotaxic apparatus under ketamine (15 mg/kg b.w.) and medetomidine (0.03-0.05 mg/kg b.w.) anesthesia. […] The x, y, and z coordinates for the S-ME were calculated using ventriculographs and the final radiographs taken during cranial pedestal implantation surgery. […]

**Q.** `CC(=O)N[C@H](C)C(=O)N[C@@H](CC(N)=O)C(=O)N[C@@H](Cc1c[nH]c2ccccc12)C(=O)N[C@@H](CC(N)=O)C(=O)NCC(=O)N[C@@H](Cc1ccccc1)C(=O)NCC(=O)N[C@H](Cc1c[nH]c2ccccc12)C(=O)N[C@@H](CCCNC(=N)N)C(=O)N[C@@H](Cc1ccccc1)C(N)=O` [Peptide 234] (Ac-[dA]NWNGFG[dW]RF-NH2) was tested. Which “GnRH pulses and mean GnRH levels” value did it give?
**A.** suppressed

Reference: US8916681B2, “Compound, use and method” (Medical Research Council, priority 2007, dated 2014)
